Experimental findings from US20050215548A1 (Cyclacel Limited, priority 2002, published 2005) are described below.

The test system of assay [1] is AGS. In words: Combination treatment with cisplatin or etoposide, MTT, AGS. It counts as cell-based, human. The source says:
It is well established that radiotherapy and most current forms of chemotherapy cause extensive genetic damage and induction of the p53-dependent apoptotic pathway, which determines the important role of this tumor suppressor protein in cancer therapy. HDM2, on the other hand, as a transcriptional product and negative regulator pf p53, would destabilise p53 and diminish its pro-apoptotic function. Inhibitors of the p53-HDM2 negative feedback loop (e.g. compounds disrupting the p53-HDM2 complex) are expected to synergise with cytotoxic agents for induction of p53 and subsequent apoptosis. […] Both chemotherapeutic agents were used in the concentration range of 100-0.19 μM.

In assay [2] the test system is SJSA-1. The assay can be described thus: 72-h MTT cytotoxicity assay, SJSA-1. It counts as cell-based. As to conditions: Homo sapiens. Summed up: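 Compounds were incubated with three human tumour lines chosen for genetic contrast, then viability was scored by MTT reduction. AGS is gastric with intact p53, SJSA-1 is bone sarcoma bearing intact p53 and amplified HDM2 expression, and H1299 is lung carcinoma without p53.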

The subject of assay [3] is HeLa. In words: 72-h MTT cytotoxicity assay, HeLa. It counts as cell-based. The following applies: Homo sapiens, Cervical carcinoma, read-out: Anti-proliferative activity, 72-h MTT IC50. As for the experimental part: (§1) Representative bisarylsulfonamide compounds were tested on a panel of transformed and non-transformed human cell lines, using a standard 72-h MTT cytotoxicity assay [Haselsberger K et al, ibid].

Assay [4] relates to key proteins in the HDM2 pathway. In words: SDS-PAGE and immunoblotting of key proteins in the HDM2 pathway. It counts as cell-based, human. The source says:
Equal amounts of cell lysate were separated by SDS-PAGE and analysed by immunoblotting using the indicated antibodies. An estimation of the extent of cell rounding is indicated above each lane. […] (B) The effect of compound 2 on the levels of the cell cycle proteins in AGS cells (wild-type 53). […] Equal amounts of cell lysate were separated by SDS-PAGE and analysed by immunoblotting using the indicated antibodies. An estimation of the extent of cell rounding is indicated above each lane. (C) The effect of negative control compound (refer Example 10), compound 2, cisplatin, and anisomycin on the levels of key proteins in MCF7 cells. […] Cisplatinum and anisomycin (a transcription inhibitor) treatments were with 50 μM or 37 μM, respectively. Cells were harvested at various time points; afterwards lysates were prepared and separated by SDS-PAGE and analysed by immunoblotting. The proteins detected are indicated. The extent of rounded or floating cells and the percentage viable cells were assessed. […] Equal amounts of cell lysate were separated by SDS-PAGE and analysed by immunoblotting using a range of antibodies. An estimation of the extent of cell rounding is indicated above each lane. […] SJSA1 cells were treated with 5 times [IC50] of compound 2 and collected at the indicated time points. Equal amounts of cell lysate were separated by SDS-PAGE and analysed by immunoblotting using a range of antibodies. An estimation of the extent of cell rounding is indicated above each lane.
Many types of cellular stress converge on the p53 pathway and induce its activity. […] The biological effect of bisarylsufonamides on cellular level was studies using representative compounds (mainly compound 2) and number of cell lines with different HDM2 and p53 status. These were overexpressing Hdm2 (SJSA1—osteosarcoma), wild type p53 and normal levels of HDM2 (AGS—gastric adenocarcinoma, MCF7—breast adenocarcinoma), or p53 null, low levels of HDM2 (H1299—large cell lung carcinoma).
Cells were lysed and equal amounts were analysed by SDS-polyacrylamide gel electrophoresis (SDS-PAGE) and immunoblotting.
Background: Immunoblotting shows a protein as a band on a membrane.

For assay [5], the system named is DU145. In words: 72-h MTT cytotoxicity assay, DU145. It counts as cell-based. The following applies: Homo sapiens, DU-145, 72 h; DU145, Prostate carcinoma; read-out: Anti-proliferative activity, 72-h MTT IC50. The protocol:
as §1
Background: Tetrazolium assays rely on reduction of a dye to a coloured formazan, in cell work by metabolically active cells.

The test system of assay [6] is U2OS. In words: 72-h MTT cytotoxicity assay, U2OS. It counts as cell-based. The following applies: Homo sapiens, Osteosracoma, read-out: Anti-proliferative activity, 72-h MTT IC50. The protocol: as §1
For assay [7], the system named is HS27. In words: 72-h MTT cytotoxicity assay, HS27. As to conditions: Homo sapiens, HS27, Foreskin fibroblasts, read-out: Anti-proliferative activity, 72-h MTT IC50. It counts as cell-based. The protocol: as §1
Assay [8] relates to A549. In words: 72-h MTT cytotoxicity assay, A549. It counts as cell-based. The following applies: Homo sapiens, A549, Lung carcinoma, read-out: Anti-proliferative activity, 72-h MTT IC50. The protocol: as §1
Assay [9] concerns MCF7 or H1299 cells. The assay can be described thus: Cell cycle distribution, propidium iodide flow cytometry. It counts as cell-based, human. As to conditions: 5 times IC50. As for the experimental part: Cells were stained with propidium iodide and the cell cycle position was determined using a flow cytometer.
For assay [10], the system named is H1299 cells. The assay can be described thus: Caspase activity (casp ACE assay), H1299. It counts as cell-based, human. As to conditions: five times the IC50. As for the experimental part: (§2) In more detail: (A) Cells were treated with […] [IC50] of compound 2 or cisplatinum and collected at the time points indicated. Cell lysates were prepared, the caspase activity was determined using the casp ACE assay and values were plotted on a graph. (B) Cells were treated with 5 times [IC50] of compound 2 or cisplatinum and collected at the time points indicated. AGS cells were also incubated with compound 2 in the presence of a caspase inhibitor Z-VAD.fmk. Cell lysates were prepared, the caspase activity was determined using the casp ACE assay and values were plotted on a graph.
(§3) To characterise the apoptosis-inducing properties of bisarylsulfonamides caspase ⅓ activty was measured. AGS or H1299 cells were treated with a low concentration of compound 2 or cisplatin corresponding to twice the IC50 value (FIG. 6A). Morphological changes were detected in 10-20% of cells by 72 hours corresponding to an induction of caspase activity first detected at 48 hours, increasing by 72 hours. We also treated AGS and H1299 cells with higher concentrations corresponding to five times the IC50 (FIG. 6B). In this experiment we included a […], Z-VAD.fmk to determine the caspase responsible.

Assay [11] concerns SKUT-1. The assay can be described thus: 72-h MTT cytotoxicity assay, SKUT-1. It counts as cell-based. As to conditions: Homo sapiens, SK-UT-1, 72 h; SKUT-1, Uterus leiomyosarcoma; read-out: Anti-proliferative activity, 72-h MTT IC50. As for the experimental part:
as §1

Assay [12] relates to AGS cells. The assay can be described thus: Caspase activity (casp ACE assay), AGS. As to conditions: five times the IC50, compared with cisplatin treatment. It counts as cell-based, human. As for the experimental part:
as §2, §3

Assay [13] has as its system IMR90. The assay can be described thus: 72-h MTT cytotoxicity assay, IMR90. It counts as cell-based. As to conditions: Homo sapiens, IMR-90, 72 h; IMR90, Lung fibroblasts; read-out: Anti-proliferative activity, 72-h MTT IC50. The protocol: as §1
The mark [14] stands for this setting: 72 h, SJSA-1, Osteosracoma, Table 2, read-out: Anti-proliferative activity, 72-h MTT IC50.
Where [15] appears, read: SJSA-1, 72-h MTT, Table 1, read-out: IC50 Anti-proliferative effect on cell line SJSA-1.

Like-named read-outs stand apart in the source and are kept apart here.

Turning to `O=[N+]([O-])c1cc(S(=O)(=O)Nc2ccc(Cl)cc2)sc1Cl` [Compound 2, 5-Chloro-4-nitrothiophene-2-sulfonic acid (4-chlorophenyl)-amide], the “IC50 of etoposide, fold lower in cells pre-treated with 2” value in [1] (2 added 6 hours before etoposide) was determined as 3.5 fold. In addition, the “potency increase of cisplatin” value in assay [1] (2 added prior to the treatment with cisplatin) worked out at 18.5 fold. Besides, the IC50 in assay [1] (Homo sapiens, MTT, 72 hours, Table 5, read-out: IC50, agent alone) came to 1.1 µM; in [2] (setting [14]) it was 13.5 µM; in assay [2] (setting [15]), 13.6 ± 1.1 µM; in assay [2] (SJSA-1, Example 9, read-out: anti-proliferative IC50 concentration determined for each cell line), 15 µM; in [3] it was 2.8 µM; in [5], 3.1 µM. Further, the IC50 in [6] was found to be 6.2 µM; in assay [7], 17.3 µM; in assay [8], 5.2 µM; in assay [11], 8.8 µM; in assay [13], 23.1 µM. The “HDM2 and E2F-1 protein levels” value in assay [4] (AGS, H1299, MCF7 or SJSA1 cells, five times the anti-proliferative IC50) is “rapid reduction in HDM2 and E2F-1 levels”. In assay [4] (MCF7 cells), the JNK phosphorylation result is on record as “transient induction in JNK phosphorylation”. In [4] (MCF7 cells), the “p38 MAPK pathway induction” value was “no clear induction of the p38 MAPK pathway”. The “p53 level and p53 phosphorylation at serine 15” value in assay [4] (compound 2: AGS, H1299, MCF7 or SJSA1 cells, etoposide or cisplatinum: AGS or MCF7 cells) is “no induction of p53 nor p53 phosphorylation at serine 15”. Further, the “PARP cleavage / PARP levels” value in assay [4] (five times IC50, 85-kDa cleavage product marker for apoptosis) was “very rapid in H1299 cells but less so in AGS, MCF7 or SJSA1 cells”. In addition, the cell cycle arrest result in [9] is listed as “no detectable arrest at any phase of the cell cycle”. Moreover, in [9], the “sub-G1 cells, indicative of apoptosis” value was “induced sub-G1 cells”. Besides, the caspase activity entry in assay [10] is “detected by four hours”; in [12], “only weak caspase activity was induced by 24 hours”.
With `O=[N+]([O-])c1cc(S(=O)(=O)Nc2ccc(F)cc2)sc1Cl` [Compound 3, 5-Chloro-4-nitrothiophene-2-sulfonic acid (4-fluorophenyl)amide], the IC50 in assay [2] (setting [14]) was 14.1 µM; in [2] (setting [15]), 17.1 ± 0.4 µM; in assay [3] it was 2.7 µM; in assay [5], 3.6 µM; in assay [6], 8.2 µM; in assay [7] it was 15.2 µM. For the same compound, the IC50 in assay [8] stood at 5.9 µM; in assay [11] it was 14.1 µM; in assay [13], 19.8 µM.
For the compound `O=[N+]([O-])c1cc(S(=O)(=O)Nc2ccc(C(F)(F)F)cc2)sc1Cl` [Compound 6, 5-Chloro-4-nitrothiophene-2-sulfonic acid (4-trifluoromethylphenyl)amide], the IC50 in assay [2] (setting [14]) came out at 17.8 µM; in assay [2] (setting [15]), 22.5 ± 0.6 µM; in assay [3], 3.9 µM; in [5], 6.1 µM; in assay [6], 10.2 µM; in assay [7], 21.4 µM. The IC50 in [8] was 10 µM; in [11], 15 µM; in assay [13], 29.8 µM.
